According to PMC4011845, “Stereoselectivity of Isoflurane in Adhesion Molecule Leukocyte Function-Associated Antigen-1” (PLoS ONE, 2014):

What was measured:
[1] = molecular target: T1, leukocyte function-associated antigen-1 (LFA-1) (Homo sapiens, UniProt P20701); test: cell-free LFA-1:ICAM-1 binding assay ([…] 1-AMA); fluorescence probe on the αL I domain; type: biochemical
T1 construct: gene ITGAL; αL I domain residues 128-307 (fluorescence); with integrin β2 subunit (LFA-1 heterodimer)

[2] = molecular target: T2, leukocyte function-associated antigen-1 (LFA-1) αL I domain (Homo sapiens, UniProt P20701); test: 1-aminoanthracene fluorescence displacement; supported by cell-based ICAM-1 binding inhibition
T2 construct: gene ITGAL; αL I domain wild type, residues 128-307 of the integrin αL subunit
T2 sequence (P20701 153-332): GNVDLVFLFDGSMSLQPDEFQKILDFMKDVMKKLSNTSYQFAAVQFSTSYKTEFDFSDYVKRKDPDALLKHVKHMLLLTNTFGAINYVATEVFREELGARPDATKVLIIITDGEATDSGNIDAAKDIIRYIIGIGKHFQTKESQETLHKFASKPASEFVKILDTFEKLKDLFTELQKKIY

T1 sequence (P20701 26-1090 limits assumed): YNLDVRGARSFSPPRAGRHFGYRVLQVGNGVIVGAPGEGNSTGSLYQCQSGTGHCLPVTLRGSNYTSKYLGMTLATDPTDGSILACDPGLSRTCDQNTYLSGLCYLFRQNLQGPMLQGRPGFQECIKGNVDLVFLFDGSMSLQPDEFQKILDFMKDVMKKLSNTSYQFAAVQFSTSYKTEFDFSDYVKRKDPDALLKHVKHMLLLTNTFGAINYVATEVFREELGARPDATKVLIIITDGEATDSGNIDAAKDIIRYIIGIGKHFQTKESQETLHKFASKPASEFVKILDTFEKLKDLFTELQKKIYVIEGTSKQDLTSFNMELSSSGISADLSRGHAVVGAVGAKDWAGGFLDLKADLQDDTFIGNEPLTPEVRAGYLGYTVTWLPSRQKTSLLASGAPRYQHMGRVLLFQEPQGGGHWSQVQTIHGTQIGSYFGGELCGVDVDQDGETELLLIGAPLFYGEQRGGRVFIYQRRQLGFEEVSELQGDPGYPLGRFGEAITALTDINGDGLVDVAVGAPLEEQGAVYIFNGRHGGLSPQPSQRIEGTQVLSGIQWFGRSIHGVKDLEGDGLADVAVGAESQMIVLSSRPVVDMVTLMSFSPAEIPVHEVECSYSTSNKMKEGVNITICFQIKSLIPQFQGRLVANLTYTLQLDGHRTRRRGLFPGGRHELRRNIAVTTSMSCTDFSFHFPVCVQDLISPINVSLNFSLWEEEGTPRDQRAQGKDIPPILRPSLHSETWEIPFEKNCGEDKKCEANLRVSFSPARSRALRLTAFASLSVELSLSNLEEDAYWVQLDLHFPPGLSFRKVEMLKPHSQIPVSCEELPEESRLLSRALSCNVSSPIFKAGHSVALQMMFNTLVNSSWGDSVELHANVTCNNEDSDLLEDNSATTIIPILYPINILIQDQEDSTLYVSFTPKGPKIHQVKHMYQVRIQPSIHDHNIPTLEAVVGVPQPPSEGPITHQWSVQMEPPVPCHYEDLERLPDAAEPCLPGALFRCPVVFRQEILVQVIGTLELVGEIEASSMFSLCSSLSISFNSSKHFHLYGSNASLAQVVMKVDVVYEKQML
T1 sequence (P05107 23-700 partner limits assumed): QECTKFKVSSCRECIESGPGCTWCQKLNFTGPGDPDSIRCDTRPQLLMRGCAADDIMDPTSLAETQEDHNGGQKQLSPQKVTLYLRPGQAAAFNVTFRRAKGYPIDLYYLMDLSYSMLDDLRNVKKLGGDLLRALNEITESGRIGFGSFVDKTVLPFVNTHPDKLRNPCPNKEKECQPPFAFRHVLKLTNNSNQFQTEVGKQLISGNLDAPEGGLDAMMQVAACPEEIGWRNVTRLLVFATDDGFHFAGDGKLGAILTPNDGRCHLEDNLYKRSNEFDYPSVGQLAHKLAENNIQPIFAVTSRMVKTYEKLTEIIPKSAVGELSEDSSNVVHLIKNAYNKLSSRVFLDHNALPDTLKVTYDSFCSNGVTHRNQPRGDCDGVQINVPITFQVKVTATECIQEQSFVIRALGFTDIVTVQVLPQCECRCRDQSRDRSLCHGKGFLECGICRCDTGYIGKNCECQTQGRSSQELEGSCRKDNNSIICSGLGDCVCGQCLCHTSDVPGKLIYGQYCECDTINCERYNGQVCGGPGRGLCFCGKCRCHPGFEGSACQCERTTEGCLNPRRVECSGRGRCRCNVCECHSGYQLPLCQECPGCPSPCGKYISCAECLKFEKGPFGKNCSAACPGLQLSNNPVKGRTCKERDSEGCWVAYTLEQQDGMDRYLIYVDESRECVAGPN

Nc1cccc2cc3ccccc3cc12 [1-AMA, 1-aminoanthracene]
cell-free LFA-1:ICAM-1 binding assay (10-25 μM 1-AMA); fluorescence probe on the [1]: As shown in Figure 2A , 1-AMA inhibited the binding of LFA-1 to its ligand ICAM-1.

FC(F)OC(Cl)C(F)(F)F (centres unmarked) [S-isoflurane]
Kd [2]: 375 µM
